What all share (assay type): in vivo, BALB/c mice
The subject of one assay is CT-26 tumors. The assay is described as follows: Immune cell composition of CT-26 tumors by flow cytometry. The conditions noted are these: after 7 days dosing; Compound B 15 mg/kg BID, anti-PD-1 10 mg/kg Q3D; versus vehicle. The protocol:
The immune cell composition of Compound B (as described in example 9 above) as a single agent and combined with a mouse anti-PD1 antibody was evaluated in the CT-26 mouse colon adenocarcinoma model grown in BALB/c mice. Mice were inoculated subcutaneously in the right flank with 5×10^5 tumor cells. When tumors reached an average size of 85 mm^3 dosing was initiated. The dosing regimens in the 4 separate cohorts comprising 10 mice each are listed as follows:
After dosing animals for 7 days, tumors were resected and used to prepare single cell suspensions. Live cells representing tumor and immune cells were stained with cocktails of antibodies targeting multiple immune cell markers (anti-CD45, anti-CD3, anti-CD4, anti-CD8, anti-CD25, anti-FoxP3, anti-PD-1, anti-CD11c) conjugated to different fluorescent tags. The stained cells were fixed in 4% paraformaldehyde and quantified using a multi-color flow cytometer (Fortessa). The data was analyzed with FloJo software.

In assay [1] the test system is 4T1 mouse breast cancer model. As to the kind of experiment: Anti-tumor activity in the 4T1 model, additional experiment with anti-PD1. The settings on record: Compound B 15 mg/kg BID single agent, n=7/group. The protocol:
The antitumor activity of Compound B as a single agent and combined with a mouse anti-PD1 antibody was evaluated in the 4T1 mouse breast cancer model grown in BALB/c mice in an additional experiment. Mice were inoculated subcutaneously in the right flank with 3×10^5 tumor cells. When tumors reached an average size of 97 mm^3 dosing was initiated. The dosing regimens in the 4 separate cohorts comprising 7 mice each are as follows: […]

Assay [2] deals with 4T1 mouse breast cancer model. The assay is described as follows: Anti-tumor activity in the 4T1 breast cancer mouse model, alone and with anti-CTLA4. The protocol:
The antitumor activity of Compound B (as described in example 9 above) as a single agent and combined with a mouse anti-CTLA4 antibody was evaluated in the 4T1 mouse breast cancer model grown in BALB/c mice. Mice were inoculated subcutaneously in the right flank with 3×10^5 tumor cells. When tumors reached an average size of 100 mm^3 (7 days after tumor cell inoculation) dosing was initiated.

For assay [3], the system named is CT-26 mouse colon adenocarcinoma model. As to the kind of experiment: Anti-tumor activity in the CT-26 colon adenocarcinoma mouse model, alone and with anti-PD-1. The protocol:
The antitumor activity of Compound B as a single agent and combined with a mouse anti-PD-1 antibody was evaluated in the CT-26 mouse colon adenocarcinoma model grown in BALB/c mice. Mice were inoculated subcutaneously in the right flank with 5×10^5 tumor cells. When tumors reached an average size of 71 mm^3 (6 days after tumor cell inoculation) dosing was initiated. The dosing regimens in the 8 separate cohorts comprising 10 mice each are as follows: […]

Assay [4] has the same test system. The assay is described as follows: Anti-tumor activity in the CT-26 model, additional experiment with anti-PD1. The conditions noted are these: single agents (Compound B 15 mg/kg BID; anti-PD1 10 mg/kg BIW) versus vehicle, n=7/group. The protocol:
The antitumor activity of Compound B as a single agent and combined with a mouse anti-PD1 antibody was evaluated in the CT-26 mouse colon adenocarcinoma model grown in BALB/c mice in an additional experiment. Mice were inoculated subcutaneously in the right flank with 5×10^5 tumor cells. When tumors reached an average size of 91 mm^3 dosing was initiated. The dosing regimens in the 4 separate cohorts comprising 7 mice each are as follows: […]

Molecules are shown by their SMILES.

`C[C@H](NC(=O)c1cc(Cl)cnc1Oc1cccc(F)c1)c1ccc(C(=O)O)cc1` [Compound B]: the “percentage of activated T cells (CD45, CD3, CD8; CD25 expression)” value in the assay on CT-26 tumors is “did not”. For the same molecule, the “percentage of dendritic cells (CD45, CD11c positive)” value in the assay on CT-26 tumors is listed as “increased percentage”. Also, the “regulatory T cells (CD45, CD4, FoxP3, CD25 positive)” value with CT-26 tumors is “significant decrease”. Also, the “tumor growth kinetics during the period of dosing” value is “less than that of the vehicle group and anti-PD1 when dosed alone” in assay [1]; “decreased relative to the vehicle treated mice” in assay [2] (single agents (Compound B 15 mg/kg BID; anti-CTLA4) versus vehicle, n=10/group); “not notably different from the vehicle treated mice” in assay [3] (15 mg/kg QD and BID p.o., single agent, versus vehicle, n=10/group); “less than that of the vehicle group” in assay [4]. In addition, the figures for the mice still alive result in assay [2] (47 days after tumor inoculation) and in assay [3] (99 days after tumor inoculation) were “none” and 1 out of 10 mice, respectively. Besides, the tumor free mice in assay [3] (99 days after tumor inoculation, 10 mice per group) is reported as 1 mice.

The values above are taken from US20210353648A1, “GRAPIPRANT UNIT DOSAGE FORMS” (Arrys Therapeutics, Inc., priority 2018, published 2021).
